Results: patent publication US10683278B2 (JINAN UNIVERSITY, priority 2015, dated 2020)
Where two headings read alike, the source gives them in different places.

How the values were obtained:
MV4-11 cells = assay: Inhibition of proliferation of MV4-11 cells (CCK-8); format: cell-based; conditions: Homo sapiens, 72 h, mean±standard deviation of two independent tests
Description: (§1) 12000 g of compounds were centrifuged for 5 min, DMSO was added to make a 10^−2M stock solution, vortexed uniformly and sonicated for 10 min for standby application, and stored at −40° C. The compounds were diluted from the stock solution with saline to 10 times the concentration to be tested (concentration of DMSO in the system being no more than 0.5%) during the test.
(§2) The inhibitory effect of the compounds on the proliferation of MV4-11 cells was detected using a CCK-8 cell counting kit (Dojindo). The specific steps are as follows: the MV4-11 cells in logarithmic growth phase were seeded into a 96-well culture plate at a suitable density in 90 μL/well, cultured overnight, compounds at different concentrations were then added and acted on cells for 72 hr, and the solvent control group (negative control) was set up. The effect of the compounds on cell proliferation was detected using a CCK-8 cell counting kit (Dojindo) after the compounds had acted on the cells for 72 h. 10 μL of CCK-8 reagent was added to each well, same was placed in an incubator at 37° C. for 2-4 hours, and the reading from the full-wavelength microwell plate ELIASA SpectraMax 190 was performed with a wavelength of 450 nm.
(§3) IC50 value was calculated using a software included with ELIASA by the four-parameter regression.
(§4) IC50 for the inhibition of the compounds on each stain of cells was derived from two independent repeated tests, and the results are shown as the mean±standard deviation.

Molm-13 cells = assay: Inhibition of proliferation of Molm-13 cells (CCK-8); format: cell-based; conditions: Homo sapiens, 72 h, mean±standard deviation of two independent tests
Description: [Worded in the source for another cell line; this cell line is reported under the same test.] as §1, §2, §3, §4

AXL kinase = target: T1, AXL kinase (Homo sapiens, UniProt P30530); assay: IC50 test on AXL kinase (Z′-LYTE FRET kinase activity detection); format: biochemical; conditions: for IC50: Z′-LYTE FRET peptide assay, 1 h reaction; for inhibitory activity on AXL kinase: competitive experiment with ATP, in words
T1 construct: purchased Invitrogen PV4803
T1 sequence (P30530 26-894): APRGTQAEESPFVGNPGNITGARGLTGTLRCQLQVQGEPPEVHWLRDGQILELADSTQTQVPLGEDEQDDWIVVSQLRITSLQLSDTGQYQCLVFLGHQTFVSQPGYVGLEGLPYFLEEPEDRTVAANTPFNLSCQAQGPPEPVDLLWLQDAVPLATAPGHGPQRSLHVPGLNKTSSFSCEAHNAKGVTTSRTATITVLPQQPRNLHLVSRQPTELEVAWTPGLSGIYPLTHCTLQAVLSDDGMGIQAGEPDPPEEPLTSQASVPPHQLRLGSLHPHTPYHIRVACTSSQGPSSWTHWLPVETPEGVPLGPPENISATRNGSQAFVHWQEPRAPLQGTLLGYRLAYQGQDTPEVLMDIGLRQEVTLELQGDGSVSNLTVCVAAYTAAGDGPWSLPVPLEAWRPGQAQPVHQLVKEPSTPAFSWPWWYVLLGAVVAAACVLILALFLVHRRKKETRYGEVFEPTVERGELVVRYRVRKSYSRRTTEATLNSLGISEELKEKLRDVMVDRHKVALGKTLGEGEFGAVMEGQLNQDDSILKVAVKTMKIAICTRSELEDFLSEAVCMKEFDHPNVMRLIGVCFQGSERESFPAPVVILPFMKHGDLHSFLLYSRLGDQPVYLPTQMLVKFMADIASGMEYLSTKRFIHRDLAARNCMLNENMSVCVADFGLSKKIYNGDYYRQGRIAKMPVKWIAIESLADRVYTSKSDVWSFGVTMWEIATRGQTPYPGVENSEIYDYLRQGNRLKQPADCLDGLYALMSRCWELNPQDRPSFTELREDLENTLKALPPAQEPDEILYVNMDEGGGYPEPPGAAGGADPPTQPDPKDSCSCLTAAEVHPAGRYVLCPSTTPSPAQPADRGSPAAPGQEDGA
Method in brief: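 Z′-LYTE FRET readout: after 1 h kinase reaction (AXL, Tyr 2 peptide, ATP, compound dilutions), a 1 h protease step cuts unphosphorylated substrate. Excitation at 400 nm, signals at 445 nm and 520 nm used to derive IC50.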

[1] = target: T2, FLT-3 kinase domain recombinant protein (Homo sapiens, UniProt P36888); assay: Inhibition rate on FLT3 kinase (ELISA); format: biochemical; conditions: two values per compound; for inhibition at 0.01 µM / inhibition at 0.1 µM / inhibition at 1 µM: read-out: Inhibition rate (%) against receptor tyrosine kinase FLT-3
T2 construct: 50 μL FLT-3 kinase domain recombinant protein diluted with reaction buffer to initiate the reaction
T2 sequence (P36888 610-943 limits assumed): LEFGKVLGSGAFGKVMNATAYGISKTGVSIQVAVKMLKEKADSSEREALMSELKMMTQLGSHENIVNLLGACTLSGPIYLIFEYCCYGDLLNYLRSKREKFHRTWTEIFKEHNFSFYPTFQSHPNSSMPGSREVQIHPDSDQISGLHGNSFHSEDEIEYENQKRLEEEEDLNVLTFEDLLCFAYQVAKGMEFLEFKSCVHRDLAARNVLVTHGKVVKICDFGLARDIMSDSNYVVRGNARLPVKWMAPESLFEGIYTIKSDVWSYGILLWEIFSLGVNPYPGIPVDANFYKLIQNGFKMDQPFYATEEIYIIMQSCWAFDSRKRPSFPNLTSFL
Description: Conventional enzyme-linked immunosorbent assay (ELISA) method is used, and the specific steps are as follows
as §1, with “12,000 g” for “12000 g”, “with DMSO” for “with saline”, “to 100” for “to 10”, “being 1%)” for “being no more than 0.5%)”
1. The enzyme reaction substrate Poly (Glu, Tyr) 4:1 was diluted to 20 μg/mL with potassium-free PBS (10 mM sodium phosphate buffer, 150 mM NaCl, pH 7.2-7.4), the ELISA plate was coated with same in 125 μL/well, and reacted at 37° C. for 12-16 hours, the liquid in wells was discarded, the plate was washed three times, for 5 minutes each time, with T-PBS (potassium-free PBS with 0.1% Tween-20, 200 μL/well), and the ELISA plate was dried in an oven at 37° C. for 1-2 hours.
2. To each well were added 49 μL of ATP solution diluted with reaction buffer (50 mM HEPES pH 7.4, 50 mM MgCl2, 0.5 mM MnCl2, 0.2 mM Na3VO4, 1 mM DTT), 1 μL of compounds to be tested, and 50 μL FLT-3 kinase domain recombinant protein diluted with reaction buffer to initiate the reaction (two ATP-free control wells are required for each experiment). Subject to a shaker (100 rpm) at 37° C. and reacted for 1 hour. The liquid in wells was discarded, and the plate was washed three times with T-PBS.
(§5) 3. Antibody PY99 diluent (the antibody was diluted in 1:500 with T-PBS which contains 5 mg/mL BSA) was added in 100 μL/well, subjected same to a shaker at 37° C. and reacted for 0.5 hour. The liquid in wells was discarded, and the plate was washed three times with T-PBS.
as §5, with “4. Horseradish peroxidase labeled goat anti-mouse secondary antibody” for “3. Antibody PY99”, “1:2000” for “1:500”, “mg/ml” for “mg/mL”
5. 2 mg/ml of OPD developing solution (diluted with 0.1 M citric acid-sodium citrate buffer which contains 0.03% H2O2 (pH=5.4)) was added in 100 μL/well, and reacted at 25° C. in the dark for 1-10 minutes.
6. 2 M H2SO4 was added in 50 μL/well to stop the reaction, and the reading from the wavelength-adjustable microwell plate ELIASA VERSAmax was performed with a wavelength of 490 nm.

[2] = In vivo pharmacokinetic and bioavailability experiments of rats; set-up: species or system SD rats; conditions: for bioavailability / AUC(0-inf) / AUC(0-t) / half-life / Cmax / clearance: Sprague-Dawley, rat, plasma; for bioavailability: po, 25 mg/kg, read-out: F (oral bioavailability); for Cmax: read-out: Cmax
Description: Pharmacokinetic and bioavailability experiments of rats. SD rats were administered orally (25 mg/kg) and intravenously (2.5 to 5 mg/kg) at a single dose. Animal blood samples were taken at appropriate time points after administration, heparin was added as anticoagulant, and same were centrifuged at 8000 rpm/min for 6 minutes, the supernatant was then taken and stored at −20° C. for HPLC-MS analysis. The proteins in blood samples were precipitated with acetonitrile at 12000 rpm for 10 min, and the supernatant was used for HPCL-MS analysis. Data were fit using DAS2.0 to obtain compartmental model and non-compartmental model parameters, respectively. The oral bioavailability of each compound was calculated according to AUC data.

[3] = SD rats, Po, 25 mg/kg single dose
[4] = SD rats, iv, 5 mg/kg single dose

SMILES | IC50 (MV4-11 cells) [nM] | IC50 (Molm-13 cells) [nM] | IC50 (AXL kinase) [nM] | inhibitory activity on AXL kinase (AXL kinase) | Inhibition rate (%) against receptor tyrosine kinase FLT-3 ([1]; compound 10 nM, 0.01 µM) [%] | inhibition at 0.01 µM ([1]; compound 10 nM) [%] | Inhibition rate (%) against receptor tyrosine kinase FLT-3 ([1]; compound 100 nM, 0.1 µM) [%] | inhibition at 0.1 µM ([1]; compound 100 nM) [%] | Inhibition rate (%) against receptor tyrosine kinase FLT-3 ([1]; compound 1000 nM, 1 µM) [%] | inhibition at 1 µM ([1]; compound 1000 nM) [%] | bioavailability [2] [%] | AUC(0-inf) [2, 3] [ng·h/mL] | AUC(0-t) [2, 3] [ng·h/mL] | half-life [2, 3] [h] | Cmax [2, 3] [ng/mL] | AUC(0-inf) [2, 4] [ng·h/mL] | AUC(0-t) [2, 4] [ng·h/mL] | clearance [2, 4] [mL/min/kg] | half-life [2, 4] [h] | Cmax [2, 4] [ng/mL] | other results
CCc1ccc2c(c1)c(=O)c(C(=O)Nc1ccc(Oc3ncnc4cc(OC)c(OC)cc34)c(F)c1)c(CC)n2C [TL4830074, N-(4-(6,7-dimethoxyquinazolin-4-yloxy)-3-fluorophenyl)-2,6-diethyl-1-methyl-4-oxo-1,4-dihydroquinoline-3-carboxamide] | > 500 | > 300 | 9 | strong inhibitory activity | – | – | – | – | – | – | – | – | – | – | – | – | – | – | – | – | –
COc1cc2ncnc(Oc3ccc(NC(=O)c4cn5c6c(c(N7CCN(C)CC7)c(F)cc6c4=O)OCN5C)cc3F)c2cc1OC [TL4830039, N-(4-((6,7-dimethoxyquinazolin-4-yl)oxy)-3-fluorophenyl)-9-fluoro-3-methyl-10-(4-methylpiperazin-1-yl)-7-oxo-2,3-dihydro-7H-[1,3,4] oxadiazino[6,5,4-ij]quinoline-6-carboxamide] | – | – | 58 | – | 49.8 | 44.7 | 57.4 | 66.4 | 80.9 | 87.6 | 7.92 | 12200 | 3800 | 35.5 | 219 | 13000 | 9600 | 6.5 | 12.7 | 1140 | –
CC(C)(C)c1cc(NC(=O)Nc2ccc(-c3cn4c(n3)sc3cc(OCCN5CCOCC5)ccc34)cc2)no1 [AC220, reference compound] | < 2 | 19.5 ± 2.7 | – | – | – | – | – | – | – | – | – | – | – | – | – | – | – | – | – | – | –
CCc1ccc2c(c1)c(=O)c(C(=O)Nc1ccc(Oc3ncnc4cc(OCCN5CCCC5)c(OC)cc34)c(F)c1)c(C)n2C [TL4830058, 6-ethyl-N-(3-fluoro-4-((6-methoxy-7-(2-(pyrrolidin-1-yl)ethoxy)quinazolin-4-yl)oxy)phenyl)-1,2-dimethyl-4-oxo-1,4-dihydroquinoline-3-carboxamide] | – | – | 8 | – | 49.4 | 54.7 | 75.8 | 74 | 92.3 | 95.2 | 28 | 50300 | 39700 | 11 | 4090 | 28700 | 28400 | 3 | 4.05 | 13300 | pharmacokinetic parameter, overall judgement ([2]; SD rats, hydrochlorides, in words): appropriate pharmacokinetic parameter
CCc1ccc2c(c1)c(=O)c(C(=O)Nc1ccc(Oc3ncnc4cc(OCCCOC)c(OC)cc34)c(F)c1)c(C)n2C [TL4830073, 6-ethyl-N-(3-fluoro-4-((6-methoxy-7-(3-methoxypropoxy)quinazolin-4-yl)oxy)phenyl)-1,2-dimethyl-4-oxo-1,4-dihydroquinoline-3-carboxamide] | – | 38.6 ± 18 | 5 | strong inhibitory activity | – | – | – | – | – | – | – | – | – | – | – | – | – | – | – | – | –
